In ChEMBL document CHEMBL1136079, “Molecular design, synthesis, and structure-Activity relationships leading to the potent and selective p56(lck) inhibitor BMS-243117” (Bioorg Med Chem Lett, 2003):

Tested on: not listed separately
Assay: Inhibition of anti-CD3, anti-CD28 induced PBL T-cell proliferation
Settings: Homo sapiens

SMILES	IC50 [µM]
Cc1cccc(Cl)c1NC(=O)c1ccc2nc(NC(=O)C3CC3CN(C)C)sc2c1 (trans isomer)	3.53
Cc1cccc(Cl)c1NC(=O)c1ccc2nc(NC(=O)C3CC3C)sc2c1 (configuration not stated)	1.58
Cc1cccc(Cl)c1NC(=O)c1ccc2nc(NC(=O)NC(C)(C)C)sc2c1	1.1
Cc1cccc(Cl)c1NC(=O)c1ccc2nc(NC(=O)NCCC3CCCN3C)sc2c1 (configuration not stated)	0.96
Cc1cccc(Cl)c1NC(=O)c1ccc2nc(NC(=O)C3CC3CO)sc2c1 (trans isomer)	1.45
Cc1cccc(Cl)c1NC(=O)c1ccc2nc(NC(=O)NC3CC(C)(C)NC(C)(C)C3)sc2c1	2.8

Target: Tyrosine-protein kinase Lck (Homo sapiens, UniProt P06239)
Assay: In vitro inhibition of phosphorylation of an exogenous substrate by human p56 Lck tyrosine kinase expressed as a His-tagged protein in insect cells using a baculovirus expression system
Settings: not given

Chain of Tyrosine-protein kinase Lck (P06239 whole entry): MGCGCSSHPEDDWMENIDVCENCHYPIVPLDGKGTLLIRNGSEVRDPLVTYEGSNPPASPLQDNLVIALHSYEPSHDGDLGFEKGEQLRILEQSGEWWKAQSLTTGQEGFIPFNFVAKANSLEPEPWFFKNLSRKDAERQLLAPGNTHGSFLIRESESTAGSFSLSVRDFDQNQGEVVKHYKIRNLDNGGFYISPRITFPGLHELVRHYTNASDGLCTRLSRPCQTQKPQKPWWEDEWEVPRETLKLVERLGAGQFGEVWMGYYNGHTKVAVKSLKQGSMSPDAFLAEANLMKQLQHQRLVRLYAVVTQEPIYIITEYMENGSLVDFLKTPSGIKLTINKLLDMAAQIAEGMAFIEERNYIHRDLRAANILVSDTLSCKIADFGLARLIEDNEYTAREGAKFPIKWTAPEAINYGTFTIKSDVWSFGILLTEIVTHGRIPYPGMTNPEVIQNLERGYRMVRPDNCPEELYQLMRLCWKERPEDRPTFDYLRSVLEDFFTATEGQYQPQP

SMILES	IC50 [µM]
Cc1cccc(Cl)c1NC(=O)c1ccc2nc(NC(=O)NCc3ccco3)sc2c1	0.039
Cc1ccccc1CC(=O)Nc1nc2ccc(C(=O)Nc3c(C)cccc3Cl)cc2s1	0.565
Cc1cc(C)c(NC(=O)c2ccc3sc(NC(=O)OC(C)(C)C)nc3c2)c(C)c1	> 12.5
Cc1cccc(Cl)c1NC(=O)c1ccc2nc(NC(=O)Nc3ncccn3)sc2c1	> 3.13
Cc1cc(C)c(NC(=O)c2ccc3nc(NC(=O)OC(C)(C)C)sc3c2Cl)c(C)c1	4.4
Cc1cc(C)c(NC(=O)c2sc(NC(=O)OC(C)(C)C)nc2C)c(C)c1	3
Cc1cccc(CCO)c1NC(=O)c1ccc2nc(NC(=O)OC(C)(C)C)sc2c1	> 12.5
Cc1cccc(Cl)c1NC(=O)c1ccc2nc(NC(=O)NCc3ccc(F)cc3)sc2c1	0.087
Cc1cccc(Cl)c1NC(=O)c1ccc2nc(NC(=O)C3CCCO3)sc2c1 (configuration not stated)	0.272
CCC(C)(C)NC(=O)Nc1nc2ccc(C(=O)Nc3c(C)cccc3Cl)cc2s1	0.055
Cc1cccc(Cl)c1NC(=O)c1ccc2nc(NC(=O)C3CCC3)sc2c1	0.666
Cc1cc(C)c(NC(=O)c2ccc3[nH]c(NC(=O)OC(C)(C)C)nc3c2)c(C)c1	3.23
Cc1cccc(Cl)c1NC(=O)c1ccc2nc(NC(=O)NCCN(C)C)sc2c1	0.03
Cc1cc(C)c(NC(=O)c2ccc3nc(NC(=O)C(C)C)sc3c2)c(C)c1	0.7
Cc1cc(C)c(NC(=O)c2ccc3nc(N)sc3n2)c(C)c1	> 12.5
Cc1cc(CO)cc(C)c1NC(=O)c1ccc2nc(NC(=O)OC(C)(C)C)sc2c1	0.31
Cc1ccc(C(C)C)c(C)c1NC(=O)c1ccc2nc(NC(=O)OC(C)(C)C)sc2c1	> 12.5
COc1cc(C(=O)Nc2c(C)cc(C)cc2C)nc2sc(NC(=O)OC(C)(C)C)nc12	> 12.5
Cc1cc(C)c(NC(=O)c2ccc3nc(NC(=O)OC(C)(C)C)sc3c2)c(Br)c1C	> 12.5
Cc1cccc(Cl)c1NC(=O)c1ccc2nc(NC(=O)NC3CCCC3)sc2c1	0.045
Cc1cccc(Cl)c1NC(=O)c1ccc2nc(NC(=O)NC(C)(C)C)sc2c1	0.004

SMILES	IC50 [µM]
Cc1cc(C)c(NC(=O)c2ccc3nc(NC(=O)OC(C)(C)C)oc3c2)c(C)c1	7.25
Cc1cccc(C)c1NC(=O)c1ccc2nc(NC(=O)OC(C)(C)C)sc2c1	0.09
Cc1cc(Br)cc(C)c1NC(=O)c1ccc2nc(NC(=O)OC(C)(C)C)sc2c1	0.11
Cc1cc(C)c(NC(=O)c2cc3sc(NC(=O)OC(C)(C)C)nc3cc2Cl)c(C)c1	> 12.5
Cc1cc(C)c(NC(=O)c2ccc3nc(NC(=O)NC4CC4)sc3c2)c(C)c1	0.3
Cc1cccc(Cl)c1NC(=O)c1ccc2nc(NC(=O)C3CC3)sc2c1	0.009
Cc1cc(C)c(NC(=O)c2ccc3nc(NC(=O)c4ccccc4)sc3c2)c(C)c1	> 12.5
Cc1cc(C)c(NC(=O)c2cccc3sc(NC(=O)OC(C)(C)C)nc23)c(C)c1	> 12.5
CC(=O)c1cccc(O)c1NC(=O)c1ccc2nc(NC(=O)OC(C)(C)C)sc2c1	> 12.5
Cc1cc(C)c(NC(=O)c2cccc3nc(NC(=O)OC(C)(C)C)sc23)c(C)c1	> 12.5
Cc1cccc(Cl)c1NC(=O)c1ccc2nc(NC(=O)OC(C)(C)C)sc2c1	0.07
Cc1cc(C)c(NC(=O)c2ccc3nc(NC(=O)NCc4ccccc4)sc3c2)c(C)c1	1.73
Cc1cc(C)c(NC(=O)c2ccc3nc(NC(=O)OC(C)(C)C)sc3c2)c(Br)c1	0.2
Cc1cccc(C)c1NC(=O)c1ccc2nc(NC(=O)NC(C)(C)C)sc2c1	0.1
Cc1cc(C)c(NC(=O)c2ccc3nc(NC(=O)NC(C)(C)C)sc3c2)c(C)c1	0.07
Cc1cccc(Cl)c1NC(=O)c1ccc2nc(NC(=O)NC3CC3)sc2c1	0.09
Cc1cccc(Cl)c1NC(=O)c1ccc2nc(NC(=O)Nc3ccccn3)sc2c1	2.01
COc1cccc(OC)c1NC(=O)c1ccc2nc(NC(=O)OC(C)(C)C)sc2c1	> 12.5
CCC(NC(=O)Nc1nc2ccc(C(=O)Nc3c(C)cccc3Cl)cc2s1)c1ccccc1 (configuration not stated)	0.019
Cc1cc(Br)ccc1NC(=O)c1ccc2nc(NC(=O)OC(C)(C)C)sc2c1	> 12.5
Cc1cccc(C)c1NC(=O)c1ccc2nc(NC(=O)C3CC3C)sc2c1 (configuration not stated)	0.011

SMILES	IC50 [µM]
Cc1cc(C)c(NC(=O)c2ccc3[nH]c(N)nc3c2)c(C)c1	> 12.5
Cc1cc(C)c(NC(=O)c2ccc3nc(N)oc3c2)c(C)c1	23
Cc1cccc(Cl)c1NC(=O)c1ccc2nc(NC(=O)Nc3ccc(F)cc3)sc2c1	0.123
Cc1cccc(C)c1NC(=O)c1ccc2nc(NC(=O)C(C)C)sc2c1	1.8
Cc1cccc(Cl)c1NC(=O)c1ccc2nc(NC(=O)NCCC3CCCN3C)sc2c1 (configuration not stated)	0.007
Cc1cccc(C)c1NC(=O)c1ccc2nc(NC(=O)C3CC3)sc2c1	0.015
Cc1cc(C)c(NC(=O)c2ccc3nc(NC(=O)OC(C)(C)C)sc3c2)c(C)c1Br	> 12.5
Cc1cccc(C)c1NC(=O)c1ccc2nc(NC(=O)NC3CC3)sc2c1	0.09
CCC(C)(C)NC(=O)Nc1nc2ccc(C(=O)Nc3c(C)cccc3C)cc2s1	0.08
Cc1cccc(Br)c1NC(=O)c1ccc2nc(NC(=O)OC(C)(C)C)sc2c1	4.27
CCCCNC(=O)Nc1nc2ccc(C(=O)Nc3c(C)cc(C)cc3C)cc2s1	0.33
Cc1cccc(Cl)c1NC(=O)c1ccc2nc(NC(=O)NC3CC(C)(C)NC(C)(C)C3)sc2c1	0.004
Cc1cc(C)c(NC(=O)c2ccc3nc(NC(=O)OC(C)(C)C)sc3n2)c(C)c1	> 12.5
COC(=O)c1cc(C)c(NC(=O)c2ccc3nc(NC(=O)OC(C)(C)C)sc3c2)c(C)c1	3.12
Cc1cc(C)c(NC(=O)c2ccc3nc(NC(=O)C4CC4)sc3c2)c(C)c1	0.02
Cc1cc(C)c(NC(=O)c2cc(C)c3nc(NC(=O)OC(C)(C)C)sc3c2)c(C)c1	5.6
Cc1cc(C)c(NC(=O)c2sc(N)nc2C)c(C)c1	3.2
Cc1cc(C)c(NC(=O)c2ccc3nc(NC(=O)OC(C)(C)C)sc3c2)c(C)c1	0.29
Cc1cc(C)c(NC(=O)c2ccc3nc(N)sc3c2)c(C)c1	15
